{"source": "patent EP3496534B1", "about": "“LIQUID CONCENTRATE FOR PRESERVATION” (Ashland Industries Europe GmbH, priority 2016, dated 2018)", "assay_type_in_all_cases": "physicochemical", "key": {"[1]": {"experiment": "Surface tension of mixture A with water or diols", "conditions": "for Surface tension, 1% in water, mN/m: 90.0 parts mixture A + 10.0 parts of the substance; for surface tension (change against addition of 10 parts of water): 10 parts added to 90 parts of mixture A, application concentration of 1% in water", "procedure": "The surface tension of mixtures of 90 parts of mixture A from example 1 with 10 parts of water or diols respectively was determined (Table 5): Table 5"}, "[2]": {"experiment": "Solubility of diols in fully demineralized water"}, "[3]": {"experiment": "Solubility of mixture A + diols", "conditions": "10g of substance added to 90g of mixture A", "procedure": "10g of each of the following substances was added to 90g of mixture A to obtain solutions (Table 3)."}, "[4]": {"experiment": "Solubility of various carboxylic acid salts + diols (appearance after stirring 3 h)", "procedure": "Various carboxylic acid salts were mixed with diols in order to test whether homogenous concentrates could be obtained: […]\nIn example 4c, 10 g of 1-(2-ethyl hexyl) glycerol ether or of 1,2-octanediol, was added to an aqueous potassium sorbate solution in order to obtain solutions (Table 4c). Table 4c […]\nIn example 4e, 10g of 1-(2-ethyl hexyl) glycerol ether or of 1,2-octanediol was added to aqueous mixtures of potassium sorbate with sodium benzoate (weight ratio 1/1) in order to obtain solutions (Table 4e) Table 4e"}, "[5]": {"conditions": "10.0 diol in potassium sorbate 5.0 / sodium benzoate 5.0 / water 80.0"}, "[6]": {"conditions": "10.0 diol in potassium sorbate 10.0 / sodium benzoate 10.0 / water 70.0"}, "[7]": {"conditions": "10.0 diol in potassium sorbate 10.0 / water 80.0"}, "[8]": {"conditions": "10.0 diol in potassium sorbate 15.0 / sodium benzoate 15.0 / water 60.0"}, "[9]": {"conditions": "10.0 diol in potassium sorbate 20.0 / water 70.0"}, "[10]": {"conditions": "10.0 diol in potassium sorbate 22.5 / sodium benzoate 22.5 / water 45.0"}, "[11]": {"conditions": "10.0 diol in potassium sorbate 30.0 / water 60.0"}, "[12]": {"conditions": "10.0 diol in potassium sorbate 45.0 / water 45.0"}, "[13]": {"conditions": "10.0 diol in sodium benzoate 10.0 / water 80.0"}, "[14]": {"conditions": "10.0 diol in sodium benzoate 20.0 / water 70.0"}, "[15]": {"conditions": "10.0 diol in sodium benzoate 30.0 / water 60.0"}, "[16]": {"conditions": "10.0 diol in sodium benzoate 45.0 / water 45.0"}, "[17]": {"conditions": "10.0 parts diol in potassium formate 45.0 / fully demineralized water 45.0"}, "[18]": {"conditions": "10.0 parts diol in sodium propionate 30.0 / fully demineralized water 60.0"}}, "note": "“Also recorded” adds a separate entry of the source.", "data": [{"smiles": "O", "note": "[Water]", "values": [{"measurement": "Surface tension, 1% in water, mN/m", "setting": "[1]", "result": 71.9, "unit": "mN/m"}]}, {"smiles": "CCCCCCC(O)CO", "note": "(stereo not drawn) [1,2-octanediol]", "values": [{"measurement": "Solubility", "setting": "[2]", "result": 0.7, "unit": "%"}, {"measurement": "Solubility of mixture A + diols", "setting": "[3]", "result": "clear solution"}, {"measurement": "Appearance of solution after stirring during 3 h", "setting": "[4]; [5]", "result": 2, "unit": "phases"}, {"measurement": "Appearance of solution after stirring during 3 h", "setting": "[4]; [6]", "result": "can dissolve; also recorded: clear"}, {"measurement": "Appearance of the solution after stirring during 3h", "setting": "[4]; [7]", "result": 2, "unit": "phases"}, {"measurement": "Appearance of solution after stirring during 3 h", "setting": "[4]; [8]", "result": "can dissolve; also recorded: clear"}, {"measurement": "Appearance of the solution after stirring during 3h", "setting": "[4]; [9]", "result": "can dissolve; also recorded: clear"}, {"measurement": "Appearance of solution after stirring during 3 h", "setting": "[4]; [10]", "result": "can dissolve; also recorded: clear"}, {"measurement": "Appearance of the solution after stirring during 3h", "setting": "[4]; [11]", "result": "can dissolve; also recorded: clear"}, {"measurement": "Appearance of the solution after stirring during 3h", "setting": "[4]; [12]", "result": "can dissolve; also recorded: clear"}, {"measurement": "Appearance of solution after stirring during 3 h", "setting": "[4]; [13]", "result": 2, "unit": "phases"}, {"measurement": "Appearance of solution after stirring during 3 h", "setting": "[4]; [14]", "result": "can dissolve; also recorded: clear"}, {"measurement": "Appearance of solution after stirring during 3 h", "setting": "[4]; [15]", "result": "can dissolve; also recorded: clear"}, {"measurement": "Appearance of solution after stirring during 3 h", "setting": "[4]; [16]", "result": "can dissolve; also recorded: clear"}, {"measurement": "Appearance after stirring for 3 h", "setting": "[4]; [17]", "result": "can dissolve neither; also recorded: not dissolved, 2 phases"}, {"measurement": "Appearance after stirring for 3 h", "setting": "[4]; [18]", "result": "can dissolve neither; also recorded: not dissolved, 2 phases"}, {"measurement": "surface tension (change against addition of 10 parts of water)", "setting": "[1]", "result": "significantly decreased"}, {"measurement": "Surface tension, 1% in water, mN/m", "setting": "[1]", "result": 44.7, "unit": "mN/m"}]}, {"smiles": "CCCCC(O)CO", "note": "(stereo not drawn) [1,2-hexanediol]", "values": [{"measurement": "Solubility", "setting": "[2]", "result": "Unlimited"}, {"measurement": "Solubility of mixture A + diols", "setting": "[3]", "result": "clear solution"}]}, {"smiles": "CCCCC(CC)COCC(O)CO", "note": "(stereo not drawn) [1-(2-ethylhexyl) glycerol ether]", "values": [{"measurement": "Solubility", "setting": "[2]", "result": 0.1, "unit": "%"}, {"measurement": "Solubility of mixture A + diols", "setting": "[3]", "result": "clear solution"}, {"measurement": "Appearance of solution after stirring during 3 h", "setting": "[4]; [5]", "result": 2, "unit": "phases"}, {"measurement": "Appearance of solution after stirring during 3 h", "setting": "[4]; 10.0 diol in potassium sorbate 7.5 / sodium benzoate 7.5 / water 75.0", "result": 2, "unit": "phases"}, {"measurement": "Appearance of solution after stirring during 3 h", "setting": "[4]; [6]", "result": "can dissolve"}, {"measurement": "Appearance of solution after stirring during 3 h", "setting": "[4]; 10.0 diol in potassium sorbate 10.0 / sodium benzoate 10.0 / water 70.0, listed as 1-(2-ethylhexyl)-glycerol ether", "result": "clear"}, {"measurement": "Appearance of the solution after stirring during 3h", "setting": "[4]; [7]", "result": 2, "unit": "phases"}, {"measurement": "Appearance of solution after stirring during 3 h", "setting": "[4]; [8]", "result": "can dissolve"}, {"measurement": "Appearance of solution after stirring during 3 h", "setting": "[4]; 10.0 diol in potassium sorbate 15.0 / sodium benzoate 15.0 / water 60.0, listed as 1-(2-ethylhexyl)-glycerol ether", "result": "clear"}, {"measurement": "Appearance of the solution after stirring during 3h", "setting": "[4]; 10.0 diol in potassium sorbate 15.0 / water 75.0", "result": 2, "unit": "phases"}, {"measurement": "Appearance of the solution after stirring during 3h", "setting": "[4]; [9]", "result": "clear"}, {"measurement": "Appearance of the solution after stirring during 3h", "setting": "[4]; 10.0 diol in potassium sorbate 20.0 / water 70.0, listed as 1-(2-ethylhexyloxy)glycerol ether", "result": "can dissolve"}, {"measurement": "Appearance of solution after stirring during 3 h", "setting": "[4]; [10]", "result": "can dissolve"}, {"measurement": "Appearance of solution after stirring during 3 h", "setting": "[4]; 10.0 diol in potassium sorbate 22.5 / sodium benzoate 22.5 / water 45.0, listed as 1-(2-ethylhexyl)-glycerol ether", "result": "clear"}, {"measurement": "Appearance of the solution after stirring during 3h", "setting": "[4]; [11]", "result": "clear"}, {"measurement": "Appearance of the solution after stirring during 3h", "setting": "[4]; 10.0 diol in potassium sorbate 30.0 / water 60.0, listed as 1-(2-ethylhexyloxy)glycerol ether", "result": "can dissolve"}, {"measurement": "Appearance of the solution after stirring during 3h", "setting": "[4]; [12]", "result": "clear"}, {"measurement": "Appearance of the solution after stirring during 3h", "setting": "[4]; 10.0 diol in potassium sorbate 45.0 / water 45.0, listed as 1-(2-ethylhexyloxy)glycerol ether", "result": "can dissolve"}, {"measurement": "Appearance of solution after stirring during 3 h", "setting": "[4]; [13]", "result": 2, "unit": "phases"}, {"measurement": "Appearance of solution after stirring during 3 h", "setting": "[4]; 10.0 diol in sodium benzoate 15.0 / water 75.0", "result": 2, "unit": "phases"}, {"measurement": "Appearance of solution after stirring during 3 h", "setting": "[4]; [14]", "result": "can dissolve; also recorded: clear"}, {"measurement": "Appearance of solution after stirring during 3 h", "setting": "[4]; [15]", "result": "can dissolve; also recorded: clear"}, {"measurement": "Appearance of solution after stirring during 3 h", "setting": "[4]; [16]", "result": "can dissolve; also recorded: clear"}, {"measurement": "Appearance after stirring for 3 h", "setting": "[4]; [17]", "result": "can dissolve neither; also recorded: not dissolved, 2 phases"}, {"measurement": "Appearance after stirring for 3 h", "setting": "[4]; [18]", "result": "not dissolved, 2 phases"}, {"measurement": "Appearance after stirring for 3 h", "setting": "[4]; 10.0 parts diol in sodium propionate 30.0 / fully demineralized water 60.0, listed as 1-(2-ethylhexyl)glycerol ether", "result": "can dissolve neither"}, {"measurement": "surface tension (change against addition of 10 parts of water)", "setting": "[1]", "result": "significantly decreased"}, {"measurement": "Surface tension, 1% in water, mN/m", "setting": "[1]", "result": 35.6, "unit": "mN/m"}]}, {"smiles": "CC(O)CO", "note": "(stereo not drawn) [Propylene glycol, reference compound]", "values": [{"measurement": "surface tension (change against addition of 10 parts of water)", "setting": "[1]", "result": "not observed"}, {"measurement": "Surface tension, 1% in water, mN/m", "setting": "[1]", "result": 72.3, "unit": "mN/m"}]}, {"smiles": "OCC(O)CO", "note": "[Glycerol (85%), Glycerol, reference compound]", "values": [{"measurement": "surface tension (change against addition of 10 parts of water)", "setting": "[1]", "result": "not observed"}, {"measurement": "Surface tension, 1% in water, mN/m", "setting": "[1]", "result": 72.2, "unit": "mN/m"}]}, {"smiles": "CCCCCCCCCCCCOCC(O)CO", "note": "(stereo not drawn) [1-dodecyl glycerol ether]", "values": [{"measurement": "Solubility", "setting": "[2]", "result": "< 0.1", "unit": "%"}, {"measurement": "Solubility of mixture A + diols", "setting": "[3]", "result": "clear solution"}]}, {"smiles": "CCCCCCCCCCC(O)CO", "note": "(stereo not drawn) [1,2-dodecanediol]", "values": [{"measurement": "Solubility", "setting": "[2]", "result": "< 0.1", "unit": "%"}, {"measurement": "Solubility of mixture A + diols", "setting": "[3]", "result": "dissolve; also recorded: clear solution"}]}]}
